Assay results from patent EP0082023A2, “Thienopyrimidine derivatives, their preparation and their medical use” (SANKYO COMPANY LIMITED, priority 1981, dated 1983).

Columns and labels:
platelet aggregation = test: Inhibition of collagen-induced platelet aggregation in platelet-rich plasma; assay type: cell-based; settings: rabbit PRP, incubated 2 minutes, collagen 5 ug/ml
Procedure: The ability of various compounds of the present invention to inhibit platelet aggregation was measured using rabbit blood.
9 volumes of blood collected from male rabbit hearts and 1 volume of a 3.8% w/v aqueous solution of sodium citrate were mixed, placed in a centrifugal separator and subjected to centrifugation under 150 G for 15 minutes to give a platelet-rich-plasma (PRP). 250 pl of this PRP were placed in a cuvette and incubated for 2 minutes with a test compound at the concentration shown in Table 2. To the mixture was then added a collagen solution to a final concentration of 5 ug/ml, to induce aggregation. The aggregation was measured using an aggregometer produced by Rikadenki Co. Ltd. The inhibitory rate R' was calculated from the following formula: [formula] in which A' represents the maximum aggregation rate when only a solvent was added and B' represents the maximum aggregation rate when the test compound was added.
For comparison, the experiment was also carried out using as the test compound VK-744, of German Offenlegungsschrift No. 2,200,764, and ICI-154 of U.S. Patent Specification No. 4,146,716.

[1] = tested on: male mice of the ddY strain; test: Hypoglycaemic activity in mice after glucose loading; assay type: in vivo; settings: Mus musculus, po, 0.5 h; blood sugar concentration vs positive control group; 10 mg/kg orally, 1.2 g/kg D-glucose orally 10 minutes later, blood collected 30 minutes after D-glucose; groups of 6 mice; read-out: Inhibitory rate, R%
Procedure: In this experiment, the hypoglycaemic activity of various of the compounds of the invention was measured in mice after loading a large quantity of glucose. The test animals were male mice of the ddY strain having a body weight of from 25 to 27 g. Each experiment was carried out on a group of 6 mice.
Each test compound was administered orally in an amount of 10 mg/kg to the mouse followed, 10 minutes later, by the oral administration of 1.2 g/kg of D-glucose. 30 minutes after administration of the D-glucose, blood was collected from each mouse and the blood sugar.concentration was measured using a commercially available kit ("New Blood Sugar Test", a product of Boehringer-Mannheim Yamanouchi Pharmaceutical Co. Ltd,). The inhibitory rate, R, was calculated from the following formula: [formula] in which A represents the blood sugar concentration of a positive control group and B represents the blood sugar concentration of the group to which the test compound was administered. As a control, the experiment was also carried out with: the known hypoglycaemic agent, tolbutamide; 2-(2-aminoethylamino)-4-morpholinothieno[2,3-d]pyrimidine (named "VK-744"), a compound disclosed in German Offenlegungsschrift No. 2,200,764; and 4-isopropylamino-2-piperidinothieno[2,3-d]-pyrimidine (hereinafter referred to as "ICI-154"), a compound disclosed in U.S. Patent Specification No. 4,146,716.

[2] = tested on: male mice of the ddY strain; test: Diuretic activity in mice (urine volume and sodium ion concentration); assay type: in vivo; settings: urine collected for 2 hours after administration, increase over control group
Procedure: The animals employed in this test were male mice of the ddY strain, each having a body weight of from 26 g to 30 g. The mice were employed in groups of five for each test. Each test compound was suspended in a 0.3% carboxymethylcellulose saline solution and administered orally in the dose shown in Table 3 to the mouse. For the period of 2 hours after administration, the urine was collected and the urine volume and concentration of sodium ions were measured. […] The compounds tested were Compound No. 3 of the present invention and hydrochlorothiazide (abbreviated as "HCT").

SMILES | inhibition in vivo at 10 mg/kg [1] | other results
Cc1csc2nc(N3CCNCC3)nc(N)c12 [Compound No. 3, 4-Amino-5-methyl-2-(1-piperazinyl)thieno[2,3-d]-pyrimidine] | 32.4% | Inhibitory rate, R'% (platelet aggregation; concentration 10^-5 g/ml): 82.4%; Percent increase in Na^+ conc. ([2]; dose 100 mg/kg orally): +51%; Percent increase in Urine volume ([2]; dose 100 mg/kg orally): +76%
CCc1cc2c(N)nc(N3CCNCC3)nc2s1 [Compound No. 8, 4-Amino-6-ethyl-2-(1-piperazinyl)thieno[2,3-d]-pyrimidine] | 34% | –
CNc1nc(N2CCNCC2)nc2scc(C)c12 [Compound No. 16, 5-Methyl-4-methylamino-2-(1-piperazinyl)thieno[2,3-d]-pyrimidine] | 43.9% | –
CCc1cc2c(NC)nc(N3CCNCC3)nc2s1 [Compound No. 21, 6-Ethyl-4-methylamino-2-(1-piperazinyl)thieno[2,3-d]-pyrimidine] | 20% | –
CCc1cc2c(N(CC)CC)nc(N3CCNCC3)nc2s1 [Compound No. 39, 4-Diethylamino-6-ethyl-2-(1-piperazinyl)thieno[2,3-d]-pyrimidine] | 19.4% | –
CCc1cc2c(NCCO)nc(N3CCNCC3)nc2s1 [Compound No. 54, 6-Ethyl-4-(2-hydroxyethylamino)-2-(1-piperazinyl)-thieno[2,3-d]pyrimidine] | – | Inhibitory rate, R'% (platelet aggregation; concentration 10^-6 g/ml): 66.1%
CCc1cc2c(NCCN)nc(N3CCNCC3)nc2s1 [Compound No. 66, 4-(2-Aminoethylamino)-6-ethyl-2-(1-piperazinyl)-thieno[2,3-d]pyrimidine] | 32.9% | Inhibitory rate, R'% (platelet aggregation; concentration 3 x 10^-5 g/ml): 100%
CCc1cc2c(N)nc(N3CCN(C)CC3)nc2s1 [Compound No. 73, 4-Amino-6-ethyl-2-(4-methyl-1-piperazinyl)thieno-[2,3-d]pyrimidine] | 34.1% | Inhibitory rate, R'% (platelet aggregation; concentration 3 x 10^-5 g/ml): 100%
CCc1cc2c(N)nc(N3CCN(C=O)CC3)nc2s1 [Compound No. 84, 4-Amino-6-ethyl-2-(4-formyl-1-piperazinyl)thieno-[2,3-d]pyrimidine] | 39.3% | –
CCc1cc2c(NC)nc(N3CCN(C=O)CC3)nc2s1 [Compound No. 99, 6-Ethyl-2-(4-formyl-1-piperazinyl)-4-methylaminothieno-[2,3-d]pyrimidine] | 22.1% | –
OCCN(CCO)c1nc(N2CCNCC2)nc2sc3c(c12)CCCC3 [Compound No. 197, 4-Bis(2-hydroxyethyl)amino-2-(1-piperazinyl)-5,6-tetramethylenethieno[2,3-d]pyrimidine] | – | Inhibitory rate, R'% (platelet aggregation; concentration 10^-5 g/ml): 87%
NS(=O)(=O)c1cc2c(cc1Cl)NCNS2(=O)=O [HCT, hydrochlorothiazide, reference compound] | – | Percent increase in Na^+ conc. ([2]; dose 30 mg/kg orally): +93%; Percent increase in Urine volume ([2]; dose 30 mg/kg orally): +43%
CC(C)Nc1nc(N2CCCCC2)nc2sccc12 [ICI-154, 4-isopropylamino-2-piperidinothieno[2,3-d]-pyrimidine, reference compound] | 11% | Inhibitory rate, R'% (platelet aggregation; concentration 10^-4 g/ml): < 50%
NCCNc1nc(N2CCOCC2)c2ccsc2n1 [VK-744, 2-(2-aminoethylamino)-4-morpholinothieno[2,3-d]pyrimidine, reference compound] | 19% | –
CNc1nc(N2CCNCC2)nc2sccc12 [compound 49, 4-Methylamino-2-(1-piperazinyl)thieno[2,3-d]pyrimidine] | 32% | –
CCc1cc2c(N(CCO)CCO)nc(N3CCNCC3)nc2s1 [compound 62, 4-Bis(2-hydroxyethyl)amino-6-ethyl-2-(1-piperazinyl)-thieno[2,3-d]pyrimidine] | – | Inhibitory rate, R'% (platelet aggregation; concentration 10^-6 g/ml): 65.3%
CCCCNC(=O)NS(=O)(=O)c1ccc(C)cc1 [tolbutamide, reference compound] | 2.8% | –
